From patent US20100036088A1, “Selective poly-N-substituted glycine antibiotics” (priority 2008, published 2010)
Converted amounts (≈) assume the structure as drawn. Like-named read-outs stand apart in the source and are kept apart here. Numbered stars: 1 amine (or outer) side, 2 acyl side, 3 side chain; on linkers, the order of the positions; unused ones are H or OH. Square brackets hold non-standard residues; d marks the D form. Peptide text beside a SMILES is read from it. X2 = CCC[C@H](C)N(CC(=O)[*:2])[*:1]; Nspe = C[C@H](NCC(=O)O)c1ccccc1; Nphe = O=C(O)CNCc1ccccc1; Nlys = NCCCCNCC(=O)O

Key:
[1] = tested on: human erythrocytes; assay: Hemolysis assay; assay type: cell-based
Summary of the method: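 Human erythrocytes from fresh heparinised blood, 20 vol % in PBS pH 7.4, mixed 1:1 with 2-fold serial peptoid dilutions; PBS as 0% and 0.2 vol % Triton X-100 as 100% hemolysis. Incubated 1 h at 37 °C, diluted, centrifuged 1200 g for 15 min; supernatant A350 read.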

[2] = tested on: B. subtilis (ATCC 6633); assay type: cell-based; conditions: ATCC 6633
Summary of the method: (§1)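 MICs by broth microdilution per CLSI M7-A6 in cation-adjusted Mueller-Hinton broth, using 2:1 serial dilutions of peptoid and a bacterial inoculum of 1×10^6 CFU/mL. Values reproducible over three experiments, each with two parallel trials.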

[3] = tested on: E. coli (ATCC 35218); assay type: cell-based; conditions: ATCC 35218
Summary of the method: as §1

[4] = MTS assay, metabolic inhibition; assay type: cell-based, mouse
Summary of the method: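 NIH/3T3 cells seeded at 5,000 per well, grown a day, then exposed to serially diluted peptoids in HBSS together with MTS reagent. Absorbance at 490 nm read after 3 hours at 37° C.; mean of six replicates.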

[5] = RP-HPLC elution solvent composition as measure of molecular hydrophobicity; assay type: physicochemical
From the text: An initial set of 15 ampetoid analogs was synthesized to determine whether peptoids are affected by structural and sequence modifications in a manner consistent with AMP activities. The designs for ampetoids in this library were derived from two antibacterial and selective amphipathic dodecamers, 1 and 2. Peptoid 1 [H-(Nlys-Nspe-Nspe)4—NH2] is composed of 2/3 Nspe, the peptoid analog of phenylalanine, and 1/3 Nlys, the peptoid analog of lysine (see FIG. 1 for the structures of representative peptoid monomers and corresponding N-substituents). Peptoid 2 [H-(Nlys-Nssb-Nspe)4—NH2] contains 1/3 isoleucine-like Nssb monomers in place of Nspe. The variant sequences were designed to effect changes in chirality, length, hydrophobicity, charge, and amphipathicity. All of these compounds were tested for antibacterial activity against representative BSL1 Gram-negative (E. coli JM109) and Gram-positive (B. subtilis BR151) bacterial strains. As an initial measure of selectivity, the lytic activity of the peptoids was determined against human erythrocytes. Table 1 summarizes the sequences synthesized, the solvent composition at RP-HPLC elution as a relative measure of molecular hydrophobicity, and antibacterial and hemolytic activities.
Following synthesis, peptoid oligomers can be cleaved from the resin, simultaneously removing the tert-butoxycarbonyl (Boc) protecting group from Nlys residues, by treatment with 10 ml 2,2,2-trifluoroacetic acid (TFA)/triisopropylsilane/H2O (95:2.5:2.5 by volume) for 30 min. The cleavage mixture is then diluted with 25 ml 50% aqueous acetonitrile, frozen, and lyophilized. Dilution and lyophilization is repeated twice more in order to remove excess TFA. Subsequent to cleavage, peptoids are each purified to >97% homogeneity by preparative scale reversed-phase HPLC using a Waters Prep LC 4000 system, with Waters 2487 dual-wavelength UV detection, and gradient elution (solvent A, 0.1 vol % trifluoroacetic acid (TFA) in water; solvent B, 0.1 vol % TFA in acetonitrile) through a Vydac (Hysperia, Calif.) 214TP101550 C4 peptide/protein column (10-15 μm, 300 Å, 5×25 cm). Following prep HPLC, peptoid purities and crude yields were determined from analytical scale HPLC, performed with a Waters 2695 Separations Module with a Waters 2487 dual-wavelength UV detector and gradient elution (solvent A, 0.1 vol % TFA in water; solvent B, 0.1 vol % TFA in acetonitrile) through a Vydac C4 214TP53 peptide/protein column (5 μm, 300 Å, 3.2×250 mm). The precise gradient employed for HPLC depended on the identity and hydrophobicity of the oligomer in question. All analytical HPLC was performed at 0.5 ml/min flow and 58° C. Preparative HPLC was performed at 50 ml/min flow and room temperature.

[6] = tested on: Enterobacter aerogenes ATCC 35029; assay type: cell-based; conditions: ATCC 35029
Description: (§2) Antibacterial assays. MICs were determined according to CLSI M7-A6 protocols in a 96-well microtiter plate. In test wells, 50 μL bacterial inoculum (5×10^5 CFU/ml) in Mueller-Hinton broth (MHB) was added to 50 μL peptoid solution in MHB (prepared by 1:2 serial dilutions). Positive controls contained 50 μL inoculum and 50 μL MHB without peptoid. […] MIC values reported were reproducible between three independent experimental replicates, each consisting of two parallel trials. Broad-spectrum antimicrobial susceptibility testing was performed against BSL2 pathogens by Nova Biologicals, Inc. (Conroe, Tex.).
(§3) Broad-spectrum antibacterial assays. MICs of compounds were determined by microdilution procedure in Mueller-Hinton broth (MHB) in accordance with CLSI M7-A6 protocols in a manner similar to that described for the screen antibacterial assays. Inoculated microtiter plates were incubated at 35° C. for 24 hours prior to the result being recorded. Four ATCC strains that were used as standards are recommended by CLSI: Pseudomonas aeruginosa ATCC 27853, Escherichia coli ATCC 25922, Staphylococcus aureus ATCC 29213 and Enterococcus faecalis ATCC 29212. Other strains from the ATCC collection include Proteus vulgaris ATCC 49132, Proteus mirabilis ATCC 35659, Klebsiella pneumoniae ATCC 33495, Enterobacter aerogenes ATCC 35029 and Serratia marcescens ATCC 13880. S. aureus NRS100 (COL) is a well characterized methicillian-resistant S. aureus (MRSA) strain. The strains S. aureus VAN1 and S. aureus VAN2, vancomycin-resistant MRSA strains that were isolated in Michigan and Pennsylvania, were the first vancomycin-resistant strains clinically isolated. S. aureus NRS119 and S. aureus NRS120 are linezolid-resistant isolates from the Network on Antimicrobial Resistance in S. aureus (NARSA) collection. E. faecalis 99 and E. faecium 106 are vancomycin-resistant enterococcal strains.

[7] = tested on: Enterococcus faecalis 99; assay type: cell-based; conditions: 99
Description: as §2, §3

[8] = tested on: Enterococcus faecalis ATCC 29212; assay type: cell-based; conditions: ATCC 29212
Description: as §2, §3

[9] = tested on: Enterococcus faecium 106; assay type: cell-based; conditions: 106
Description: as §2, §3

[10] = tested on: Escherichia coli ATCC 25922; assay type: cell-based; conditions: ATCC 25922
Description: as §2, §3

[11] = tested on: Klebsiella pneumoniae ATCC 33495; assay type: cell-based; conditions: ATCC 33495
Description: as §2, §3

[12] = tested on: Proteus mirabilis ATCC 35659; assay type: cell-based; conditions: ATCC 35659
Description: as §2, §3

[13] = tested on: Proteus vulgaris ATCC 49132; assay type: cell-based; conditions: ATCC 49132
Description: as §2, §3

[14] = tested on: Pseudomonas aeruginosa ATCC 27853; assay type: cell-based; conditions: ATCC 27853
Description: as §2, §3

[15] = tested on: Serratia marcescens ATCC 13880; assay type: cell-based; conditions: ATCC 13880
Description: as §2, §3

[16] = tested on: Staphylococcus aureus ATCC 29213; assay type: cell-based; conditions: ATCC 29213
Description: as §2, §3

[17] = tested on: Staphylococcus aureus NRS100 (COL); assay type: cell-based; conditions: NRS100 (COL)
Description: as §2, §3

[18] = tested on: Staphylococcus aureus NRS119; assay type: cell-based; conditions: NRS119
Description: as §2, §3

[19] = tested on: Staphylococcus aureus NRS120; assay type: cell-based; conditions: NRS120
Description: as §2, §3

[20] = tested on: Staphylococcus aureus VAN1; assay type: cell-based; conditions: VAN1
Description: as §2, §3

[21] = tested on: Staphylococcus aureus VAN2; assay type: cell-based; conditions: VAN2
Description: as §2, §3

E. coli MIC [3] [µM]	IC50 [4] [µM]	B. subtilis MIC [2] [µM]	MIC Enterobacter aerogenes ATCC 35029 [6] [µM]	MIC Enterococcus faecalis 99 [7] [µM]	MIC Enterococcus faecalis ATCC 29212 [8] [µM]	MIC Enterococcus faecium 106 [9] [µM]	MIC Escherichia coli ATCC 25922 [10] [µM]	MIC Klebsiella pneumoniae ATCC 33495 [11] [µM]	MIC P. mirabilis ATCC 35659 [12] [µg/mL]	MIC Proteus mirabilis ATCC 35659 [12] [µM]	MIC Proteus vulgaris ATCC 49132 [13] [µM]	MIC Pseudomonas aeruginosa ATCC 27853 [14] [µM]	MIC S. marcescens ATCC 13880 [15] [µg/mL]	MIC Serratia marcescens ATCC 13880 [15] [µM]	MIC Staphylococcus aureus ATCC 29213 [16] [µM]	MIC Staphylococcus aureus NRS100 (COL) [17] [µM]	MIC Staphylococcus aureus NRS119 [18] [µM]	Structure (SMILES)	HD10 [1]	HD50 [1]	also measured
50	64																	CC(C)[C@H](C)N(CC(N)=O)C(=O)CN(C(=O)CN(CCCCN)C(=O)CN(C(=O)CN(C(=O)CN(CCCCN)C(=O)CN(C(=O)CN(C(=O)CN(CCCCN)C(=O)CN(C(=O)CN(C(=O)CNCCCCN)[C@@H](C)C(C)C)[C@@H](C)C(C)C)[C@@H](C)C(C)C)[C@@H](C)C(C)C)[C@@H](C)C(C)C)[C@@H](C)C(C)C)[C@@H](C)C(C)C [1-Nsdpall, H-(Nlys-Nsdp-Nsdp)4-NH2]	>200/>200 μM	>200/>200 μM	B. subtilis MIC ([2]; Table 6): 0.78 µM; E. coli MIC ([3]; Table 6): 25 µM; HPLC elution (% ACN) ([5]; Table 5, average of three injections, linear 5%-95% acetonitrile/water (0.1% TFA) over 45 minutes, C18 column, measure of hydrophobicity): 63.2 % ACN
12.5	24	1.6	36.5 (≈ 64.1 µg/mL)	36.5 (≈ 64.1 µg/mL)	4.6 (≈ 8.07 µg/mL)	2.3 (≈ 4.04 µg/mL)	4.6 (≈ 8.07 µg/mL)	9.1 (≈ 16 µg/mL)	>128	>72.9	36.5 (≈ 64.1 µg/mL)	18.2 (≈ 31.9 µg/mL)	>128	>72.9	9.1 (≈ 16 µg/mL)	4.6 (≈ 8.07 µg/mL)	9.1 (≈ 16 µg/mL)	C[C@@H](c1ccccc1)N(CC(N)=O)C(=O)CN(C(=O)CN(CCCCN)C(=O)[C@@H]1CCCN1C(=O)CN(C(=O)CN(CCCCN)C(=O)CN(C(=O)CN(C(=O)CN(CCCCN)C(=O)CN(C(=O)CN(C(=O)CNCCCCN)[C@@H](C)c1ccccc1)[C@@H](C)c1ccccc1)[C@@H](C)c1ccccc1)[C@@H](C)c1ccccc1)[C@@H](C)c1ccccc1)[C@@H](C)c1ccccc1 [1-Pro9, H-(Nlys-Nspe2)2-Nlys-Nspe-L-Pro-(Nlys-Nspe2)-NH2] (H-[Nlys][Nspe][Nspe][Nlys][Nspe][Nspe][Nlys][Nspe]P[Nlys][Nspe][Nspe]-NH2)	165 µM	> 200 µM	MIC Staphylococcus aureus NRS120 [19]: 9.1 µM (≈ 16 µg/mL); MIC Staphylococcus aureus VAN1 [20]: 4.6 µM (≈ 8.07 µg/mL); MIC Staphylococcus aureus VAN2 [21]: 4.6 µM (≈ 8.07 µg/mL)
																		CCC[C@H](C)N(CC(=O)N(CC(N)=O)[C@@H](C)c1ccccc1)C(=O)CN(CCCCN)C(=O)CN(C(=O)CN(C(=O)CN(CCCCN)C(=O)CN(C(=O)CN(C(=O)CN(CCCCN)C(=O)CN(C(=O)CN(C(=O)CNCCCCN)[C@@H](C)CCC)[C@@H](C)c1ccccc1)[C@@H](C)CCC)[C@@H](C)c1ccccc1)[C@@H](C)CCC)[C@@H](C)c1ccccc1 [2-Nsap2,5,8,11] (H-[Nlys][X2][Nspe][Nlys][X2][Nspe][Nlys][X2][Nspe][Nlys][X2][Nspe]-NH2)			HD10 (10% hemolytic dose) ([1]; red cells of human, 1 h): >120/>120 μM; HD50 (50% hemolytic dose) ([1]; red cells of human, 1 h): >120/>120 μM; HPLC elution solvent ([5]; Table 1, percent acetonitrile in water, 0.1% (v/v) TFA at HPLC elution): 48%
6.3	6.8	1.6	36.3 (≈ 64 µg/mL)	36.3 (≈ 64 µg/mL)	4.5 (≈ 7.93 µg/mL)	2.3 (≈ 4.06 µg/mL)	4.5 (≈ 7.93 µg/mL)	9.1 (≈ 16 µg/mL)	>128	>72.6	36.3 (≈ 64 µg/mL)	36.3 (≈ 64 µg/mL)	>128	>72.6	4.5 (≈ 7.93 µg/mL)	4.5 (≈ 7.93 µg/mL)	9.1 (≈ 16 µg/mL)	C[C@@H](c1ccccc1)N(CC(N)=O)C(=O)CN(Cc1ccccc1)C(=O)CN(CCCCN)C(=O)CN(C(=O)CN(Cc1ccccc1)C(=O)CN(CCCCN)C(=O)CN(C(=O)CN(Cc1ccccc1)C(=O)CN(CCCCN)C(=O)CN(C(=O)CN(Cc1ccccc1)C(=O)CNCCCCN)[C@@H](C)c1ccccc1)[C@@H](C)c1ccccc1)[C@@H](C)c1ccccc1 [1-Npm2,5,8,11, H-(Nlys-Npm-Nspe)4-NH2] (H-[Nlys][Nphe][Nspe][Nlys][Nphe][Nspe][Nlys][Nphe][Nspe][Nlys][Nphe][Nspe]-NH2)	87 µM	> 200 µM	MIC Staphylococcus aureus NRS120 [19]: 9.1 µM (≈ 16 µg/mL); MIC Staphylococcus aureus VAN1 [20]: 4.5 µM (≈ 7.93 µg/mL); MIC Staphylococcus aureus VAN2 [21]: 4.5 µM (≈ 7.93 µg/mL)
